From US6030942A, “Peptides peptide analogs peptidomimetics and other small molecules useful for inhibiting the activity of ribonucleotide reductase” (The Trustees of the University of Pennsylvania, priority 1998, dated 2000)
pIC50: −log10 of the molar value. Values joined by “and” are separate entries in the source; they are usually repeats but may differ in a detail not shown here. Equal entries are not always repeated. “Also recorded” adds a separate entry of the source. Where two headings read alike, the source gives them in different places. Ends that are not written are not given here.

Legend:
RR [1] = molecular target: T1, RR (Mus musculus, UniProt P07742); experiment: Inhibition of RR by Compound 23; format: biochemical
T1 sequence (P07742 1-792): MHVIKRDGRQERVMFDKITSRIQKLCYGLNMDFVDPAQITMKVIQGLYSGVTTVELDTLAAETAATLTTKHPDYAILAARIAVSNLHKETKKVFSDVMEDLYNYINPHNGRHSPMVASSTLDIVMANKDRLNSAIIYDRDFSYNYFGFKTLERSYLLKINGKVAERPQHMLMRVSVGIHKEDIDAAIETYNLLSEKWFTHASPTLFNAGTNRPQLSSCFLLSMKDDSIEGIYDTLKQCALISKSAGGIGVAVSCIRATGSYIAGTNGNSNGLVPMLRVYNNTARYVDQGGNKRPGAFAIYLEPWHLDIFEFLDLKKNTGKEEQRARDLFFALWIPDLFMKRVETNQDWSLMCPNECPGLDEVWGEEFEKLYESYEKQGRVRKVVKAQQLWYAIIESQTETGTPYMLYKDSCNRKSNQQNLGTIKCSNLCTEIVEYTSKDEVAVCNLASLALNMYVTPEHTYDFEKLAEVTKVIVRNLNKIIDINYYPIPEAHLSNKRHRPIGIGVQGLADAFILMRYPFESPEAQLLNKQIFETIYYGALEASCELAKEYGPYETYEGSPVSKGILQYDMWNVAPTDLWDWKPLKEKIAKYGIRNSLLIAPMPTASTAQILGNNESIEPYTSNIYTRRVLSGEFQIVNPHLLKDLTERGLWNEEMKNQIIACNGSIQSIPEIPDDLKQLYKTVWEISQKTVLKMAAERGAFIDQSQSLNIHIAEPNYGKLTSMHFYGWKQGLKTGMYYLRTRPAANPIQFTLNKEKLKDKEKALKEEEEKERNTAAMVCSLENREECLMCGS
Text: (§1) Standard assays of RR activity used in the studies presented herein involve the conversion of [^3 H]-ribonucleoside diphosphate (NDP) to [^3 H]-deoxyribonucleoside diphosphate (dNDP), using dithiothreitol as the external reductant. Three methods were examined: Method 1 (Steeper et al., 1970, Anal. Biochem. 34:123-130), involving the conversion of diphosphates to nucleosides by enzymatic digestion, followed by the separation of deoxynucleoside from nucleoside on Dowex-1-borate columns; Method 2 (Moore et al., 1974, Biochemistry 13:2904-2907), involving the direct separation of dNDP from NDP on aminophenylboronate columns; Method 3 (Sato et al., 1983, Anal. Biochem. 135:431-435) involving the conversion of diphosphates to nucleosides by enzymatic digestion, followed by the separation of deoxynucleoside from nucleoside on polyethyleneimine-cellulose columns.
All three methods yielded acceptable results, with the following limitations. Method 1 is useful for the assay of CDP to dCDP and ADP to dADP conversions, but is not useful for the assay of GDP reduction. It is also sensitive to large changes in the nucleotide composition of the assay medium. Thus, it is quite useful for standard assays (purifications, tests of peptide inhibition), but difficult to apply when concentrations and substrate are widely varied. Method 2 is the easiest to perform on purified enzymes, and can be used with all four NDPs as substrates, but is difficult to use with crude enzyme, largely because contaminating phosphatase activities can skew results. Method 3 is usable with all four NDPs, but is also somewhat sensitive to large changes in the nucleotide composition of the assay medium and requires column separation at 4° C.

[2] = molecular target: T2, mammalian ribonucleotide reductase (Bos taurus, UniProt Q32LP1); experiment: Peptide inhibition of mammalian ribonucleotide reductase activity; format: biochemical; conditions: for % RI (relative inhibitory potency, (IC50 AcFTLDADF)/(IC50 peptide analog)): mean and average deviation of 2-3 determinations, others single
T2 sequence (Q32LP1 1-791): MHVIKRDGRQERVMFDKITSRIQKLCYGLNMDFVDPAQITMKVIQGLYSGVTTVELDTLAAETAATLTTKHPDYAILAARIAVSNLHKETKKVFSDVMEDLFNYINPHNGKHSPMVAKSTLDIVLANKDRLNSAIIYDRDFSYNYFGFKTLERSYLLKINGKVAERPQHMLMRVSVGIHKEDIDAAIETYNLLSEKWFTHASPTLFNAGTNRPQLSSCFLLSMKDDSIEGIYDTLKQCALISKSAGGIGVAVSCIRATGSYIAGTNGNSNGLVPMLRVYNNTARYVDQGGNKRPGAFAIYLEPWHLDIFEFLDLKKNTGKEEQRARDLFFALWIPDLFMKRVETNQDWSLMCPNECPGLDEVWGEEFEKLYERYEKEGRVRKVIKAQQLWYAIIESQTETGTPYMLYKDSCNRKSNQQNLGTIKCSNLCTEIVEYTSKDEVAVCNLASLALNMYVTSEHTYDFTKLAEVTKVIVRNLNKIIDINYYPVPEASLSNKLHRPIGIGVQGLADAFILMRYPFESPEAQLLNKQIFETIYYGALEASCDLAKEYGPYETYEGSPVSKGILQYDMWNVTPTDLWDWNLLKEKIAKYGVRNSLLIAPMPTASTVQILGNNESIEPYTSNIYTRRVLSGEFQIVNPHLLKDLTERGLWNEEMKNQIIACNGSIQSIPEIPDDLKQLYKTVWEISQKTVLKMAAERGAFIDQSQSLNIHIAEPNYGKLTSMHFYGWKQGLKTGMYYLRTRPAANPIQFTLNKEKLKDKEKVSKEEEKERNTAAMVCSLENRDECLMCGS
Text: All three methods yielded acceptable results, with the following limitations. Method 1 is useful for the assay of CDP to dCDP and ADP to dADP conversions, but is not useful for the assay of GDP reduction. It is also sensitive to large changes in the nucleotide composition of the assay medium. […] Method 2 is the easiest to perform on purified enzymes, and can be used with all four NDPs as substrates, but is difficult to use with crude enzyme, largely because contaminating phosphatase activities can skew results. Method 3 is usable with all four NDPs, but is also somewhat sensitive to large changes in the nucleotide composition of the assay medium and requires column separation at 4° C.

E. coli RR [3] = molecular target: E. coli RR (Escherichia coli, UniProt P00452); conditions: cited from earlier work
RR [4] = molecular target: T1, RR; experiment: Biological Evaluation of Compound (8): RR activity; format: biochemical
Text: as §1
All three methods yielded acceptable results, with the following limitations. Method 1 is useful for the assay of CDP to dCDP and ADP to dADP conversions, but is not useful for the assay of GDP reduction. It is also sensitive to large changes in the nucleotide composition of the assay medium. Thus, it is quite useful for standard assays (purifications, tests of peptide inhibition), but difficult to apply when concentrations and substrate are widely varied. […]

mouse R1 = molecular target: T3, mouse R1 (Mus musculus, UniProt P07742); conditions: cited from earlier work
T3 construct: made in house; host or cells: R1: Hi5 or Sf9 insect cells (baculovirus); R2: E. coli
T3 sequence (P07742 1-792): T1 sequence (P07742 1-792)

[5] = molecular target: S. cerevisiae ribonucleotide reductase (Saccharomyces cerevisiae, UniProt P21524); experiment: Peptide inhibition of S. cerevisiae ribonucleotide reductase activity; format: biochemical; conditions: Table 9; read-out: IC50, Yeast RR
Chain of S. cerevisiae ribonucleotide reductase (P21524 whole entry): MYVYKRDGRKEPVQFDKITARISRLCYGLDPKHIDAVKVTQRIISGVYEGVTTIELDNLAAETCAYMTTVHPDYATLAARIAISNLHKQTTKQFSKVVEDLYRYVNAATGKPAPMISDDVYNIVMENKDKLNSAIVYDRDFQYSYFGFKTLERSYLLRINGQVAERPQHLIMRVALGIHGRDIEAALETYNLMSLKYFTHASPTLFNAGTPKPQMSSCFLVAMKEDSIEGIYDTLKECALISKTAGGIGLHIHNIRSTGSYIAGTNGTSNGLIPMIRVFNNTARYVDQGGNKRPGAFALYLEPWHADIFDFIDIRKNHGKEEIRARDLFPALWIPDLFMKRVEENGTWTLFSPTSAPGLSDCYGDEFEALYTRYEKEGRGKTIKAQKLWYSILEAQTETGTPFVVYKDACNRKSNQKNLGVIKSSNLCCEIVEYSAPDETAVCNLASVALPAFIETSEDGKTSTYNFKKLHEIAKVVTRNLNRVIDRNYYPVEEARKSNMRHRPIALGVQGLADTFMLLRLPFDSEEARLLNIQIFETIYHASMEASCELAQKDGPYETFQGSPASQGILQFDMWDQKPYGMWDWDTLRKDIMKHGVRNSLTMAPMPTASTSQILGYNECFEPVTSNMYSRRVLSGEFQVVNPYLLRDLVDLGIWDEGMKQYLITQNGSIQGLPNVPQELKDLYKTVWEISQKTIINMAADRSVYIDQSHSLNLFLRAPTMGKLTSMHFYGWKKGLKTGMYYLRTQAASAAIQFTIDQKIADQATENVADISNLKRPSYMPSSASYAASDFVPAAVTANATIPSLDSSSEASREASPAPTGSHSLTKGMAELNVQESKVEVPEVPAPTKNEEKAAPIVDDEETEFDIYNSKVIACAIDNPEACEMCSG

E. coli RR [6] = molecular target: T4, E. coli RR (Escherichia coli, UniProt P00452); conditions: cited from earlier work; remark: listed apart in the source
T4 sequence (P00452 whole entry, looked up): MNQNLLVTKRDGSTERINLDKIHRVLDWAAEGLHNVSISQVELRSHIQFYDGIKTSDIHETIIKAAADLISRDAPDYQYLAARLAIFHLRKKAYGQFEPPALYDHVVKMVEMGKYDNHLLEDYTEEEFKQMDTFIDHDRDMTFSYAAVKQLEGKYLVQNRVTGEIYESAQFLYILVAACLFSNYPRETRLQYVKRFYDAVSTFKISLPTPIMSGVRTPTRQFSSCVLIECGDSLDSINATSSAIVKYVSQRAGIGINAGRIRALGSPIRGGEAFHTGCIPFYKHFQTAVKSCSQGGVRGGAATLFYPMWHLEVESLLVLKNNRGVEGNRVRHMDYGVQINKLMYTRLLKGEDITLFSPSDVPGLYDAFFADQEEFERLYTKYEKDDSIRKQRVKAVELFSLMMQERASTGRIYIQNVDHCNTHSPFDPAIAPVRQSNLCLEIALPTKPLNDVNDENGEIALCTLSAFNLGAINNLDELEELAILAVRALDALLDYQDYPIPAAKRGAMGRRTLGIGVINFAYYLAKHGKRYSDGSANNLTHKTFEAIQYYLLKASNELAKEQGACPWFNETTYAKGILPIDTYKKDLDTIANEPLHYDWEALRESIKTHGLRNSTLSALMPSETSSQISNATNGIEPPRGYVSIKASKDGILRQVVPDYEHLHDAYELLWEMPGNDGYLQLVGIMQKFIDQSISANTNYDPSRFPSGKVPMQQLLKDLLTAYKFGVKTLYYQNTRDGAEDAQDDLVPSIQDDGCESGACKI

[7] = molecular target: T2, mammalian ribonucleotide reductase; conditions: cited from earlier work
[8] = Table 8, Dixon plots of 4-6 concentration points, ranges are two independent determinations, read-out: IC50

CC(=O)N[C@@H](Cc1ccccc1)C(=O)NC[C@@H]1O[C@@H]([C@@H](C)C(=O)N[C@@H](CC(=O)O)C(=O)N[C@@H](Cc2ccccc2)C(=O)O)[C@@H](OCC(=O)O)C[C@H]1OCC(C)C [Compound 23]
Residual Relative Activity (RR [1]; 30 μM Compound 23): 86 ± 8 percentage | Residual Relative Activity (RR [1]; 100 μM Compound 23): 73 ± 6 percentage | Residual Relative Activity (RR [1]; 300 μM Compound 23): 64 ± 6 percentage | Residual Relative Activity (RR [1]; 500 μM Compound 23): 48 ± 4 percentage | Residual Relative Activity (RR [1]; 1000 μM Compound 23): 32 ± 6 percentage | Fold decrease in RI relative to N-AcFTLDADF ([2]; Table 8): three to four

Ac-FALDADF [Ac-FALDADF, Acetyl-Phe-Ala-Leu-Asp-Ala-Asp-Phe]
pIC50 [2, 8]: 4.40 to 4.46

Ac-FLDADF [Ac-F-LDADF]
pIC50 [2, 8]: 3.39

Ac-FSLDADF [Ac-FSLDADF, Acetyl-Phe-Ser-Leu-Asp-Ala-Asp-Phe]
pIC50 ([2]; Table 8, Dixon plots of 4-6 concentration points, ranges are two independent determinations): 4.38 to 4.40

Ac-FTADADF [Ac-FTADADF]
% RI (relative inhibitory potency, (IC50 AcFTLDADF)/(IC50 peptide analog)) ([2]; Table 8): 4.9 ± 0.60%

Ac-FTFDADF [Ac-FTFDADF]
% RI (relative inhibitory potency, (IC50 AcFTLDADF)/(IC50 peptide analog)) ([2]; Table 8): 18 ± 4.2%

Ac-FTFNEDF [AcFTFNEDF]
pIC50 ([2]; Table 9, read-out: IC50, Mammalian RR): 4.00

Ac-FTLAADF [Ac-FTLAADF]
Fold decrease in RI relative to N-AcFTLDADF ([2]; Table 8): > 30 fold | % RI (relative inhibitory potency, (IC50 AcFTLDADF)/(IC50 peptide analog)) ([2]; Table 8): 2.9 ± 0.4%

Ac-FTLDADF [Ac-FTLDADF, Acetyl-Phe-Thr-Leu-Asp-Ala-Asp-Phe]
pIC50 (E. coli RR [3]; E. coli R1 protein / RR): < 3.00 | Inhibition of E. coli RR (E. coli RR [3]): at best a very poor inhibitor of eRR; also recorded: failure to significantly inhibit E. coli RR up to concentrations of 1 mM | RR Activity (RR [4]; compound at 10 μM): 0.39 ± 0.07 | RR Activity (RR [4]; compound at 66 μM): 0.12 | pIC50 [2, 8]: 4.70 to 5.10

Ac-FTLDADFAA
% RI (relative inhibitory potency, (IC50 AcFTLDADF)/(IC50 peptide analog)) ([2]; Table 8): 2.1%

Ac-FTLDADL [Ac-FTLDADL]
Fold decrease in RI relative to N-AcFTLDADF ([2]; Table 8): over 40 fold | % RI (relative inhibitory potency, (IC50 AcFTLDADF)/(IC50 peptide analog)) ([2]; Table 8): 3% and < 3%

Ac-FTLDAEF [Ac-FTLDAEF]
Fold decrease in RI relative to N-AcFTLDADF ([2]; Table 8): > 50 fold | % RI (relative inhibitory potency, (IC50 AcFTLDADF)/(IC50 peptide analog)) ([2]; Table 8): 1.7 ± 0.15%

Ac-FTLDANF [Ac-FTLDANF]
Fold decrease in RI relative to N-AcFTLDADF ([2]; Table 8): three to four | % RI (relative inhibitory potency, (IC50 AcFTLDADF)/(IC50 peptide analog)) ([2]; Table 8): 23 ± 1.0%

Ac-FTLDLDF [Ac-FTLDLDF]
% RI (relative inhibitory potency, (IC50 AcFTLDADF)/(IC50 peptide analog)) ([2]; Table 8): 35%

Ac-FTLNADF [Ac-FTLNADF, Acetyl-Phe-Thr-Leu-Asn-Ala-Asp-Phe]
pIC50 [2, 8]: 4.54 to 4.60

Ac-FTVDADF [Ac-FTVDADF]
% RI (relative inhibitory potency, (IC50 AcFTLDADF)/(IC50 peptide analog)) ([2]; Table 8): 35%

Ac-LDADF [Ac-LDADF]
pIC50 [2, 8]: < 3.40

Ac-NSFTLDADF
pIC50 [2, 8]: 4.82 to 5.05

Ac-SFTLDADF
% RI (relative inhibitory potency, (IC50 AcFTLDADF)/(IC50 peptide analog)) ([2]; Table 8): 100% | Affinity for mR1 compared with AcFTLDADF (mouse R1): same affinity

Ac-TFNEDF [AcTFNEDF]
pIC50 [5]: 3.22

Ac-YTLDADF [Ac-YTLDADF]
Fold decrease in RI relative to N-AcFTLDADF ([2]; Table 8): five to ten | % RI (relative inhibitory potency, (IC50 AcFTLDADF)/(IC50 peptide analog)) ([2]; Table 8): 7% | Fold lower affinity for mR1 than AcFTLDADF (mouse R1): 15 fold

Acetyl-(p-amino-Phe)-Thr-Leu-Asp-Ala-Asp-Phe [Ac-F(4'-NH2)TLDADF]
Fold decrease in RI relative to N-AcFTLDADF ([2]; Table 8): five to ten | % RI (relative inhibitory potency, (IC50 AcFTLDADF)/(IC50 peptide analog)) ([2]; Table 8): 10%

Acetyl-(p-azido-Phe)-Thr-Leu-Asp-Ala-Asp-Phe [Ac-F(4'-N3)TLDADF]
Fold decrease in RI relative to N-AcFTLDADF ([2]; Table 8): five to ten | % RI (relative inhibitory potency, (IC50 AcFTLDADF)/(IC50 peptide analog)) ([2]; Table 8): 10%

DDLSNFQL [reference compound]
Inhibition of E. coli RR (E. coli RR [6]): inhibits eRR | Inhibition of mRR [7]: does not inhibit mRR

FA-DAP-C(N)FTLDADF: folate-peptide conjugate: γ-1,5-diaminopentane folate condensate coupled to thiol of NCFTLDADF via sulfo-MBS (not fully specified (residue 2))
RR inhibition compared with AcFTLDADF [2]: comparable to AcFTLDADF

FTLDADF [FTLDADF, Phe-Thr-Leu-Asp-Ala-Asp-Phe]
pIC50 [2, 8]: < 3.40

SFTLDADF
pIC50 [2, 8]: 4.10
